Results reported in patent publication US20250134907A1, “FUSED DIAZEPINES AS AGONISTS OF THE INSULIN-LIKE 3 (INSL3) PEPTIDE RECEPTOR RXFP2 AND METHODS OF USE THEREOF” (The United States of America,as represented by the …, priority 2022, published 2025).
pEC50: −log10 of the molar value.

Target: T1, RXFP2 (Homo sapiens, UniProt Q8WXD0)
T1 construct: expressed in transfected cells
Test: HTRF cAMP assay in HEK293T cells stably expressing RXFP2 (HEK-RXFP2)
Format: cell-based
Conditions: for % EFF vs. 1 nM INSL3 (b): normalized to 1 nM INSL3 cAMP response; for % EFF vs. 100 nM INSL3 (c): normalized to 100 nM INSL3 cAMP response; for % EFF vs. 1 nM INSL3 (a): maximum cAMP response normalized to 1 nM INSL3 response
Procedure: Compound efficacy and EC50 were determined by measuring cAMP induction in vitro. HEK293T cells stably expressing RXFP2 (HEK-RXFP2) produce cAMP when RXFP2 is activated, which can be measured in an antibody-based immunoassay utilizing a fluorescent readout (cAMP Gs HiRange Kit, PerkinElmer, Waltham, MA). HEK-RXFP2 cells were seeded in 96-well plates in serum-free DMEM and incubated overnight at 37° C., 5% CO2. Plates were then treated with a compound titration up to 25 μM or INSL3 control, in the presence of isobutylmethylxanthine phosphodiesterase inhibitor (IBMX) at 200 μM to amplify the cAMP signal, for 1 hour at 37° C., 5% CO2 before being processed as per kit instructions. Table 7 lists the efficacy and EC50 of compounds tested under different experimental conditions. […] In condition (a), 20,000 cells were seeded per well in the 96 well plate, and efficacy was determined by normalizing the maximum compound cAMP response to the 1 nM INSL3 cAMP response (% Efficacy 1 nM INSL3 (a)). In condition (b), 10,000 cells were seeded per well, and compound response was normalized to the 1 nM INSL3 cAMP response (% Efficacy 1 nM INSL3 (b)). In condition (c), 7,500 cells were seeded per well, compound response was normalized to the 100 nM INSL3 cAMP response, and IBMX was omitted (% Efficacy 100 nM INSL3 (c)). A range is given when compounds were tested multiple times. Where compounds were tested under multiple experimental conditions, the EC50 listed for the corresponding condition is marked (a) through (c) to correlate. When EC50 could not be calculated from the dose-response curve, EC50 is listed as not determined (ND).

[1] = condition (b): 10,000 cells/well, IBMX 200 μM
[2] = condition (c): 7,500 cells/well, IBMX omitted
[3] = condition (a): 20,000 cells/well, IBMX 200 μM

T1 sequence (Q8WXD0 whole entry): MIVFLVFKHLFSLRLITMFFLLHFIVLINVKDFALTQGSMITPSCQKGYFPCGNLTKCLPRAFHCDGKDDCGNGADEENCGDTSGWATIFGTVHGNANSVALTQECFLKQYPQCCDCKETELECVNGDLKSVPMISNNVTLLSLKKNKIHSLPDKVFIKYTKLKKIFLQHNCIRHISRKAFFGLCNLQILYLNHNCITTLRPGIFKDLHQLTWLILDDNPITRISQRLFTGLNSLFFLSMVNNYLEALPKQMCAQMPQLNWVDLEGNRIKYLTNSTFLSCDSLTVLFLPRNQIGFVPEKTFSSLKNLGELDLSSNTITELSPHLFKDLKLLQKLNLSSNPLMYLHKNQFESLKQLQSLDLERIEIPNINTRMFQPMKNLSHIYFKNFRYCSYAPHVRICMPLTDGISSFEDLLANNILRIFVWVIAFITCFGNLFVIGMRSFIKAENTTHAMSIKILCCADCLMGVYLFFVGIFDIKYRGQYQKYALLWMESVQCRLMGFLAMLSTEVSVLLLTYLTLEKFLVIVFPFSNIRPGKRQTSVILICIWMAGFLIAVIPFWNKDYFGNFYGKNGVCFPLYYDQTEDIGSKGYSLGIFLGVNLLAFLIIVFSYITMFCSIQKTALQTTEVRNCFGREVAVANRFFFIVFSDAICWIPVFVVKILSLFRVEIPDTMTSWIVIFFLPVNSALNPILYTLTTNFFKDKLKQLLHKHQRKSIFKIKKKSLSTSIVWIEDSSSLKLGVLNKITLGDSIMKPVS

% EFF vs. 1 nM INSL3 (b) [1] | % EFF vs. 1 nM INSL3 (a) [3] | Structure (SMILES) | further results
67.7% | – | O=C1Nc2ccc(-c3cc(C(F)(F)F)ccc3F)cc2C(=O)N2CCN(C(=O)COc3ccc(OC(F)(F)F)cc3Cl)CC12 (racemic) [Example 104, 2-(2-(2-chloro-4-(trifluoromethoxy)phenoxy)acetyl)-8-(2-fluoro-5-(trifluoromethyl)phenyl)-1,3,4,12a-tetrahydrobenzo[e]pyrazino[1,2-a][1,4]diazepine-6,12 (2H, 11H)-dione] | pEC50 [1]: 7.75
50.30% | – | N#Cc1cc(-c2ccc3c(c2)C(=O)N2CCN(C(=O)COc4ccc(OC(F)(F)F)cc4Cl)CC2C(=O)N3)cc(C(F)(F)F)c1 (racemic) [Example 106, 3-(2-(2-(2-chloro-4-(trifluoromethoxy)phenoxy)acetyl)-6,12-dioxo-1,2,3,4,6,11,12,12a-octahydrobenzo[e]pyrazino[1,2-a]1[1,4]diazepin-8-yl)-5-(trifluoromethyl)benzonitrile] | pEC50 [1]: 7.50
– | – | O=C1Nc2cnc(-c3cc(C(F)(F)F)cc(C(F)(F)F)c3)cc2C(=O)N2CCN(C(=O)COc3ccc(OC(F)(F)F)cc3I)C[C@@H]12 (single isomer, unassigned) [Example 196] | pEC50 [2]: 6.01; % EFF vs. 100 nM INSL3 (c) [2]: 109.23%
– | – | O=C1Nc2cnc(-c3cc(C(F)(F)F)cc(C(F)(F)F)c3)cc2C(=O)N2CCN(C(=O)COc3ccc(OC(F)(F)F)cc3Br)C[C@@H]12 (single isomer, unassigned) [Example 197] | % EFF vs. 100 nM INSL3 (c) [2]: 104.06%
– | – | O=C1Nc2ncc(-c3cc(C(F)(F)F)cc(C(F)(F)F)c3)cc2C(=O)N2CCN(C(=O)COc3ccc(OC(F)(F)F)cc3I)C[C@@H]12 (single isomer, unassigned) [Example 202] | pEC50 [2]: 7.39; % EFF vs. 100 nM INSL3 (c) [2]: 102.23%
– | – | O=C1Nc2ccc(-c3cc(C(F)(F)F)cc(C(F)(F)F)c3)nc2C(=O)N2CCN(C(=O)COc3ccc(OC(F)(F)F)cc3I)C[C@@H]12 (single isomer, unassigned) [Example 206] | pEC50 [2]: 6.25; % EFF vs. 100 nM INSL3 (c) [2]: 60.89%
47.69% | – | Cc1cc(OC(F)(F)F)ccc1OCC(=O)N1CCN2C(=O)c3cc(-c4ccnc(C(F)(F)F)c4)ccc3NC(=O)C2C1 (stereo not shown) [Example 40, 2-(2-(2-methyl-4-(trifluoromethoxy)phenoxy)acetyl)-8-(2-(trifluoromethyl)pyridin-4-yl)-1,3,4,12a-tetrahydrobenzo[e]pyrazino[1,2-a][1,4]diazepine-6,12 (2H, 11H)-dione] | –
33.78% | – | Cc1cc(OC(F)(F)F)ccc1OCC(=O)N1CCN2C(=O)c3cc(-c4cncc(C(F)(F)F)c4)ccc3NC(=O)C2C1 (stereo not shown) [Example 41, 2-(2-(2-methyl-4-(trifluoromethoxy)phenoxy)acetyl)-8-(5-(trifluoromethyl)pyridin-3-yl)-1,3,4,12a-tetrahydrobenzo[e]pyrazino[1,2-a][1,4]diazepine-6,12 (2H, 11H)-dione] | –
– | 20.07-42.35% | O=C1Nc2ccc(-c3cccc(C(F)(F)F)c3)cc2C(=O)N2CCN(C(=O)COc3ccc(OC(F)F)cc3F)CC12 (stereo not shown) [Example 55, 2-(2-(4-(difluoromethoxy)-2-fluorophenoxy)acetyl)-8-(3-(trifluoromethyl)phenyl)-1,3,4,12a-tetrahydrobenzo[e]pyrazino[1,2-a][1,4]diazepine-6,12 (2H, 11H)-dione] | pEC50 [3]: 7.23 to 7.61
– | 56.29-60.35% | Cc1cc(OC(F)(F)F)ccc1OCC(=O)N1CCN2C(=O)c3cc(-c4cccc(C(F)(F)F)c4)ccc3NC(=O)C2C1 (stereo not shown) [Example 64, 2-(2-(2-methyl-4-(trifluoromethoxy)phenoxy)acetyl)-8-(3-(trifluoromethyl)phenyl)-1,3,4,12a-tetrahydrobenzo[e]pyrazino[1,2-a][1,4]diazepine-6,12 (2H, 11H)-dione] | pEC50 [3]: 7.25 to 7.43
– | 33.99% | O=C1Nc2ccc(-c3cccc(C(F)(F)F)c3)cc2C(=O)N2CCN(C(=O)COc3ccc(C(F)(F)F)c(F)c3F)CC12 (stereo not shown) [Example 68, 2-(2-(2,3-difluoro-4-(trifluoromethyl)phenoxy)acetyl)-8-(3-(trifluoromethyl)phenyl)-1,3,4,12a-tetrahydrobenzo[e]pyrazino[1,2-a][1,4]diazepine-6,12 (2H, 11H)-dione] | pEC50 [3]: 8.07
– | 35.5% | O=C1Nc2ccc(-c3cccc(C(F)(F)F)c3)cc2C(=O)N2CCN(C(=O)COc3ccc(OC(F)(F)F)cc3F)CC12 (stereo not shown) [Example 101, 2-(2-(2-fluoro-4-(trifluoromethoxy)phenoxy)acetyl)-8-(3-(trifluoromethyl)phenyl)-1,3,4,12a-tetrahydrobenzo[e]pyrazino[1,2-a][1,4]diazepine-6,12 (2H, 11H)-dione] | pEC50 [3]: 7.61
81.13-152.31% | 143.62% | Cc1cc(-c2ccc3c(c2)C(=O)N2CCN(C(=O)COc4ccc(OC(F)(F)F)cc4Cl)CC2C(=O)N3)cc(C(F)(F)F)c1 (stereo not shown) [Example 105, 2-(2-(2-chloro-4-(trifluoromethoxy)phenoxy)acetyl)-8-(3-methyl-5-(trifluoromethyl)phenyl)-1,3,4,12a-tetrahydrobenzo[e]pyrazino[1,2-a][1,4]diazepine-6,12 (2H, 11H)-dione] | pEC50 [1]: 6.66 to 7.07
– | 27.96% | O=C1Nc2ccc(-c3ccc(C(F)(F)F)s3)cc2C(=O)N2CCN(C(=O)COc3ccccc3)CC12 (stereo not shown) [Example 107, 2-(2-phenoxyacetyl)-8-(5-(trifluoromethyl)thiophen-2-yl)-1,3,4,12a-tetrahydrobenzo[e]pyrazino[1,2-a][1,4]diazepine-6,12 (2H, 11H)-dione] | –
38.19% | – | Cc1cc(OC(F)(F)F)ccc1OCC(=O)N1CCN2C(=O)c3cc(-c4cccc(C(F)(F)F)n4)ccc3NC(=O)C2C1 (stereo not shown) [Example 108, 2-(2-(2-methyl-4-(trifluoromethoxy)phenoxy)-acetyl)-8-(6-(trifluoromethyl)pyridin-2-yl)-1,3,4,12a-tetrahydrobenzo[e]pyrazino[1,2-a][1,4]diazepine-6,12 (2H, 11H)-dione] | –
– | 12.93% | O=C1Nc2ccc(-c3cccc(C(F)(F)F)c3)cc2C(=O)N2CCN(C(=O)COc3ccccc3)C[C@@H]12 [Example 112, (S)-2-(2-phenoxyacetyl)-8-(3-(trifluoromethyl)phenyl)-1,3,4,12a-tetrahydrobenzo[e]pyrazino[1,2-a][1,4]diazepine-6,12 (2H, 11H)-dione] | –
– | 3.69% | O=C1Nc2ccc(-c3cccc(C(F)(F)F)c3)cc2C(=O)N2CCN(C(=O)COc3ccccc3)C[C@H]12 [Example 115, (R)-2-(2-phenoxyacetyl)-8-(3-(trifluoromethyl)phenyl)-1,3,4,12a-tetrahydrobenzo[e]pyrazino[1,2-a][1,4]diazepine-6,12 (2H, 11H)-dione] | –
77.84% | – | O=C1Nc2ccc(-c3cccc(C(F)(F)F)c3)cc2C(=O)N2CCN(C(=O)COc3ccc(OC(F)(F)F)cc3Cl)C[C@@H]12 [Example 117, (S)-2-(2-(2-chloro-4-(trifluoromethoxy)phenoxy)acetyl)-8-(3-(trifluoromethyl)phenyl)-1,3,4,12a-tetrahydrobenzo[e]pyrazino[1,2-a][1,4]diazepine-6,12 (2H, 11H)-dione] | pEC50 [1]: 7.81
– | 43.71% | O=C1Nc2ccc(-c3cccc(C(F)(F)F)c3)cc2C(=O)N2CCN(C(=O)COc3ccc(OC(F)(F)F)cc3Cl)C[C@H]12 [Example 118, (R)-2-(2-(2-chloro-4-(trifluoromethoxy)phenoxy)acetyl)-8-(3-(trifluoromethyl)phenyl)-1,3,4,12a-tetrahydrobenzo[e]pyrazino[1,2-a][1,4]diazepine-6,12 (2H, 11H)-dione] | –
70.76% | – | Cc1cc(OC(F)(F)F)ccc1OCC(=O)N1CCN2C(=O)c3cc(-c4cccc(C(F)(F)F)c4)ccc3NC(=O)[C@@H]2C1 [Example 120, (S)-2-(2-(2-methyl-4-(trifluoromethoxy)phenoxy)acetyl)-8-(3-(trifluoromethyl)phenyl)-1,3,4,12a-tetrahydrobenzo[e]pyrazino[1,2-a][1,4]diazepine-6,12 (2H, 11H)-dione] | pEC50 [1]: 8.07
– | 28.28% | Cc1cc(OC(F)(F)F)ccc1OCC(=O)N1CCN2C(=O)c3cc(-c4cccc(C(F)(F)F)c4)ccc3NC(=O)[C@H]2C1 [Example 121, (R)-2-(2-(2-methyl-4-(trifluoromethoxy)phenoxy)acetyl)-8-(3-(trifluoromethyl)phenyl)-1,3,4,12a-tetrahydrobenzo[e]pyrazino[1,2-a][1,4]diazepine-6,12 (2H, 11H)-dione] | –
